Measurements: patent publication US5750499A, “Receptor-selective somatostatin analogs” (The Salk Institute for Biological Studies, priority 1995, dated 1998)
Entries after “also recorded” stand apart in the source; their conditions may differ. Where a SMILES comes first, the peptide text is derived from it. Bridges are numbered along the chain shown (N, C = ends). Where no end group is shown, it is not given here. [ ]: non-standard residue; d: D form. The star is where a group is joined. Phe(4-CH2NHiPr) = CC(C)NCc1ccc(C[C@H](N)C(=O)O)cc1; Tyr(3-I) = N[C@@H](Cc1ccc(O)c(I)c1)C(=O)O; 125I = [125I]*

Columns and labels:
[1] = target: T1, mSSTR2 (Mus musculus, UniProt P30875); assay: Inhibition of [125I-Tyr11]SRIF binding to cloned mSSTR2 (Table)
T1 construct: expressed in transfected cells; host or cells: COS and CHO cells
T1 sequence (P30875 whole entry): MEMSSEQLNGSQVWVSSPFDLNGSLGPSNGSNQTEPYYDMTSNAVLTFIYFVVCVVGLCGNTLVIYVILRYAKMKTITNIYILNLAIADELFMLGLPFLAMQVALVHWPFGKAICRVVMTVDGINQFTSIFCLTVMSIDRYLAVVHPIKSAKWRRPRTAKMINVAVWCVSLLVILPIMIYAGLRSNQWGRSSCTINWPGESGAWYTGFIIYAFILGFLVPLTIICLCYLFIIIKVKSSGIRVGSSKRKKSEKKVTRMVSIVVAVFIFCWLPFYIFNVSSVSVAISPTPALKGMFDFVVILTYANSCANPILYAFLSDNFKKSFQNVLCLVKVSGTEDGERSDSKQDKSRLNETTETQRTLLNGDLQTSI
Experimental: (§1) In vitro Bioassay: The effects of the various somatostatin analogs are tested in vitro for their ability to bind to isolated cloned receptors expressed on COS and CHO cells.
(§2) The molecular cloning of the genes encoding multiple somatostatin receptor subtypes permits the individual expression of these receptors in mammalian cells and the characterization of their respective pharmacological profiles.
(§3) Certain of the measurements are in progress.

[2] = target: T2, mSSTR3 (Mus musculus, UniProt P30935); assay: Inhibition of [125I-Tyr11]SRIF binding to cloned mSSTR3 (Table)
T2 construct: expressed in transfected cells; host or cells: COS and CHO cells
T2 sequence (P30935 whole entry): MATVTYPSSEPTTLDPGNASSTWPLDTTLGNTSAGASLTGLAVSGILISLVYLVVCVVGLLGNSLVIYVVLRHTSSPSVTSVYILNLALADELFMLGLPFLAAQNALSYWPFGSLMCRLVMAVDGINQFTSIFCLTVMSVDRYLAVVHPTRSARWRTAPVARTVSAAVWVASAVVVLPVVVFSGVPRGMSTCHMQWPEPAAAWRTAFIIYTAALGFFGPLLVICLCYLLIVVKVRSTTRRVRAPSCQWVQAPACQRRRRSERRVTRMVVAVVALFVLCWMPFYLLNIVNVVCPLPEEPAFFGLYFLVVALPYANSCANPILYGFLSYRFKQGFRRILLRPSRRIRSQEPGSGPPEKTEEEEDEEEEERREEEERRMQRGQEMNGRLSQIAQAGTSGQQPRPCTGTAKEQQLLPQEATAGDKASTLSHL
Experimental: as §1, §2, §3

[3] = target: T3, SSTR1 (Homo sapiens, UniProt P30872); assay: Inhibition of [125I-Tyr11]SRIF binding to cloned human SSTR1
T3 construct: expressed in transfected cells; host or cells: COS and CHO cells
T3 sequence (P30872 whole entry): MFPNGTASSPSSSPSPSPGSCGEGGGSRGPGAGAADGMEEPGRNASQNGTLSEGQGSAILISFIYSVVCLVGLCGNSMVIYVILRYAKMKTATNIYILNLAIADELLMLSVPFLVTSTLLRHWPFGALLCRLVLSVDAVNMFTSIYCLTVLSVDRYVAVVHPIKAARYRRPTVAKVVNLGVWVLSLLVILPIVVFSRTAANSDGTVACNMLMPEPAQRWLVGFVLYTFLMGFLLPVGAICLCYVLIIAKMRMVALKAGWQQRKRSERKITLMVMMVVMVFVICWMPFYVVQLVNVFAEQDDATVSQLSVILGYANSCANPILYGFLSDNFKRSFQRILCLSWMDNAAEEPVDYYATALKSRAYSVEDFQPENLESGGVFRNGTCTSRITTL
Experimental: In a typical assay, an amount of protein from the cell homogenate is placed into a small volume of an appropriate assay buffer at an appropriate pH.
(§4) Alternatively, IC50 values indicative of the concentration of a competitive ligand necessary to displace a saturation concentration of a target ligand being measured from 50% of binding sites can also be calculated in such competitive assays.
as §1, §2

[4] = target: T4, mSSTR1 (Mus musculus, UniProt P30873); assay: Inhibition of [125I-Tyr11]SRIF binding to cloned mSSTR1 (Table)
T4 construct: expressed in transfected cells; host or cells: COS and CHO cells
T4 sequence (P30873 whole entry): as the sequence (P30872 whole entry) above, with G25A, G26C, A32S, T385A, T389S counted along it
Experimental: as §1, §2, §3

[5] = target: T3, SSTR1; assay: Inhibition of binding of iodinated Peptide No. 5 to SSTR1; conditions: radioligand iodinated Peptide No. 5
Description: as §4
(§5) The Bmax value represents the highest number of specific sites which can be occupied at a given time, i.e. the saturation point.

[6] = system: COS-7 cells expressing SSTR1; assay: Forskolin-stimulated cAMP formation in COS-7 cells expressing SSTR1; format: cell-based; conditions: 1 μM of Peptide No. 2
[7] = target: T3, SSTR1; assay: Direct saturation binding of iodinated Peptide No. 5 to cloned SSTR1; conditions: iodinated peptide as radioligand
Description: as §4, §5

[8] = target: T5, SSTR4 (Homo sapiens, UniProt P31391); assay: Direct binding of iodinated Peptide No. 5 to cloned SSTR4
T5 construct: expressed in transfected cells; host or cells: COS and CHO cells
T5 sequence (P31391 whole entry): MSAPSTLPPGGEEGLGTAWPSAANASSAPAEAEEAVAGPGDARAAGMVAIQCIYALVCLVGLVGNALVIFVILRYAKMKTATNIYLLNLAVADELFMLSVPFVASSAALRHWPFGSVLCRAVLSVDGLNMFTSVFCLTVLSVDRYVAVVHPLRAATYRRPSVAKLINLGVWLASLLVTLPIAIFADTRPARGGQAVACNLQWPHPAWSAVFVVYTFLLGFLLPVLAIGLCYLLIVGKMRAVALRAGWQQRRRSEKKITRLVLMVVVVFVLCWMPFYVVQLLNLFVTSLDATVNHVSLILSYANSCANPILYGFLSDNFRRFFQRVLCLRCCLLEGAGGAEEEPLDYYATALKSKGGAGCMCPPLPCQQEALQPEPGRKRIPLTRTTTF
Description: as §5

[9] = target: T6, SSTR3 (Mus musculus, UniProt P30935); assay: Direct binding of iodinated Peptide No. 5 to cloned SSTR3
T6 construct: expressed in transfected cells; host or cells: COS and CHO cells
T6 sequence (P30935 whole entry): as the sequence (P30935 whole entry) above
Description: as §5

[10] = target: T7, SSTR1 expressed in COS-7 cells (Homo sapiens, UniProt P30872); assay: GTPgS and pertussis toxin regulation of radioligand binding to SSTR1 expressed in COS-7 cells
T7 construct: expressed in transfected cells; host or cells: COS-7 cells
T7 sequence (P30872 whole entry): as the sequence (P30872 whole entry) above
Description: as §5

[11] = target: T8, SSTR5 (Rattus norvegicus, UniProt P30938); assay: Direct binding of iodinated Peptide No. 5 to cloned SSTR5
T8 construct: expressed in transfected cells; host or cells: COS and CHO cells
T8 sequence (P30938 1-363): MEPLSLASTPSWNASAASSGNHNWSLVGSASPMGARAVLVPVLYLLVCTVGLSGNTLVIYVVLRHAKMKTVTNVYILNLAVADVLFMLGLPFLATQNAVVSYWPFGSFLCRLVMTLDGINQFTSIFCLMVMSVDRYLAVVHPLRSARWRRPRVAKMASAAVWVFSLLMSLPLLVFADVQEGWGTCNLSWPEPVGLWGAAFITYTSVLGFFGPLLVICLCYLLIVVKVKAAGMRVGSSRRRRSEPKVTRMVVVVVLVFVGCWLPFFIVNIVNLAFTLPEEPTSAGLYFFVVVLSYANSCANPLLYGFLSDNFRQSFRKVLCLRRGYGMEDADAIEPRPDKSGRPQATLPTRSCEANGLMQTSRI
Description: as §5

[12] = target: T9, SSTR2 (Mus musculus, UniProt P30875); assay: Direct binding of iodinated Peptide No. 5 to cloned SSTR2
T9 construct: expressed in transfected cells; host or cells: COS and CHO cells
T9 sequence (P30875 whole entry): as the sequence (P30875 whole entry) above
Description: as §5

| Molecule | IC50 [1] [nM] | IC50 [2] [nM] | IC50 [4] [nM] | further results |
| --- | --- | --- | --- | --- |
| CC(C)NCc1ccc(C[C@@H]2NC(=O)[C@@H](Cc3c[nH]c4ccccc34)NC(=O)[C@H](Cc3ccccc3)NC(=O)[C@H](Cc3ccccc3)NC(=O)[C@H](CCCCN)NC(=O)[C@@H](N)CSSC[C@@H](C(=O)O)NC(=O)[C@H](CO)NC(=O)[C@H]([C@@H](C)O)NC(=O)[C@H](Cc3ccccc3)NC(=O)[C@H]([C@@H](C)O)NC2=O)cc1 [Peptide No. 2, des-AA^1,2,5 [D-Trp^8, IAmp^9]-SRIF] (H-CKFF[dW][Phe(4-CH2NHiPr)]TFTSC-OH; disulfide 1-11) | 1100 | 1000 | 1 | IC50 [3]: 1.8 ± 0.7 nM |
| CC(C)NCc1ccc(C[C@@H]2NC(=O)[C@@H](Cc3c[nH]c4ccccc34)NC(=O)[C@H](Cc3ccccc3)NC(=O)[C@H](Cc3ccccc3)NC(=O)[C@H](CCCCN)NC(=O)[C@@H](N)CSSC[C@@H](C(=O)O)NC(=O)[C@@H](CO)NC(=O)[C@H]([C@@H](C)O)NC(=O)[C@H](Cc3ccccc3)NC(=O)[C@H]([C@@H](C)O)NC2=O)cc1 [Peptide No. 4, des-AA^1,2,5-[D-Trp^8, IAmp^9, D-Ser^13]SRIF] (H-CKFF[dW][Phe(4-CH2NHiPr)]TFT[dS]C-OH; disulfide 1-11) | > 1000 | 178 | 1.25 | IC50 [5]: 5.3 ± 0.8 nM |
| CC(C)NCc1ccc(C[C@@H]2NC(=O)[C@@H](Cc3c[nH]c4ccccc34)NC(=O)[C@H](Cc3ccccc3)NC(=O)[C@H](Cc3ccccc3)NC(=O)[C@H](CCCCN)NC(=O)[C@@H](NC(=O)[C@@H](N)Cc3ccc(O)cc3)CSSC[C@@H](C(=O)O)NC(=O)[C@H](CO)NC(=O)[C@H]([C@@H](C)O)NC(=O)[C@H](Cc3ccccc3)NC(=O)[C@H]([C@@H](C)O)NC2=O)cc1 [Peptide No. 5] (H-YCKFF[dW][Phe(4-CH2NHiPr)]TFTSC-OH; disulfide 2-12) | > 100 | > 100 | 0.8 | – |
| CC(C)NCc1ccc(C[C@@H]2NC(=O)[C@@H](Cc3c[nH]c4ccccc34)NC(=O)[C@H](Cc3ccccc3)NC(=O)[C@H](Cc3ccccc3)NC(=O)[C@H](CC(N)=O)NC(=O)[C@H](CCCCN)NC(=O)[C@@H](N)CSSC[C@@H](C(=O)O)NC(=O)[C@H](CO)NC(=O)[C@H]([C@@H](C)O)NC(=O)[C@H](Cc3ccccc3)NC(=O)[C@H]([C@@H](C)O)NC2=O)cc1 [Peptide No. 9] (H-CKNFF[dW][Phe(4-CH2NHiPr)]TFTSC-OH; disulfide 1-12) | > 1000 | > 1000 | 54 | – |
| C[C@H](N)C(=O)NCC(=O)N[C@H]1CSSC[C@@H](C(=O)O)NC(=O)[C@H](CO)NC(=O)[C@H]([C@@H](C)O)NC(=O)[C@H](Cc2ccccc2)NC(=O)[C@H]([C@@H](C)O)NC(=O)[C@H](CCCCN)NC(=O)[C@H](Cc2c[nH]c3ccccc23)NC(=O)[C@H](Cc2ccccc2)NC(=O)[C@H](Cc2ccccc2)NC(=O)[C@H](CC(N)=O)NC(=O)[C@H](CCCCN)NC1=O [SRIF, somatostatin-14] | – | – | – | inhibition of forskolin-stimulated cAMP formation [6]: Neither 1 μM of Peptide No. 2, nor SRIF itself, inhibits forskolin-stimulated cAMP formation |
| CC(C)NCc1ccc(C[C@@H]2NC(=O)[C@@H](Cc3c[nH]c4ccccc34)NC(=O)[C@H](Cc3ccccc3)NC(=O)[C@H](Cc3ccccc3)NC(=O)[C@@H](N)CSSC[C@@H](C(=O)O)NC(=O)[C@H](Cc3ccccc3)NC(=O)[C@H]([C@@H](C)O)NC2=O)cc1 [[IAmp^9]ODT8, [IAmp^5]-ODT8] (H-CFF[dW][Phe(4-CH2NHiPr)]TFC-OH; disulfide 1-8) | > 1000 | 500 | 160 | – |
| CC(C)NCc1ccc(C[C@@H]2NC(=O)[C@@H](Cc3c[nH]c4ccccc34)NC(=O)[C@H](Cc3ccccc3)NC(=O)[C@H](Cc3ccccc3)NC(=O)[C@H](CCCCN)NC(=O)[C@@H](NC(=O)[C@@H](N)Cc3ccc(O)c(I)c3)CSSC[C@@H](C(=O)O)NC(=O)[C@H](CO)NC(=O)[C@H]([C@@H](C)O)NC(=O)[C@H](Cc3ccccc3)NC(=O)[C@H]([C@@H](C)O)NC2=O)cc1 [^125 I-Tyr^2-des-AA^1,5-[D-Trp^8,IAmp^9]SRIF] (H-[Tyr(3-I)]CKFF[dW][Phe(4-CH2NHiPr)]TFTSC-OH; disulfide 2-12) | – | – | – | Bmax, binding to SSTR1 [7]: 226±56 fmol/mg protein; specific binding of iodinated peptide to SSTR4 [8]: did not bind; specific binding of iodinated peptide to SSTR3 [9]: did not bind; effect of GTPgS and pertussis toxin treatment on binding of the radioligand to SSTR1 [10]: reduced by GTPgS and pertussis toxin treatment; specific binding of iodinated peptide to SSTR5 [11]: did not bind; specific binding of iodinated peptide to SSTR2 [12]: did not bind |
| [^125 I-Tyr^11 ]SRIF (AGCKNFFWKTY(125I)TSC; ends and bridges not checked; UniProt P61278 103-116, looked up, variant F11Y) | – | – | – | effect of GTPgS and pertussis toxin treatment on binding of the radioligand to SSTR1 [10]: did not diminish; also recorded: not significantly effected by GTP analogs nor pertussis toxin treatment |
